These results are taken from ChEMBL document CHEMBL1201862, “PubChem BioAssay data set” (2004).

Data set [1] can be described thus: C. neoformans growth inhibition with sorbitol, dose response, mechanism study for C. neoformans lysis project, alamar blue, dry powder, set 3 (AID 743304). Format: functional, organism-based.
A short description of another data set: cells. The note with it: HEK293.
Data set [2] in a line: CellTiter-Glo luminescent dose response of DLD-1 viability loss (AID 1117352). The data set is classed as functional.
Data set [3] can be described thus: cytotoxicity toward HCT116 cells – cell-based, CellTiter-Glo luminescence, IC50, dose response (AID 1117332). Format: functional. To be noted: HCT-116.
Data set [4] is described as follows: cytotoxicity toward HT-29 cells – cell-based, CellTiter-Glo luminescence, IC50, dose response (AID 1117330). The data set is classed as functional.
Data set [5] in a line: microbe, parasite or virus in culture. To be noted: Mycobacterium tuberculosis. The data set is classed as functional.
Data set [6] in a line: HCT116 cell viability decrease, GSK3B pretreatment – CellTiter-Glo, IC50, dose response (AID 1117339). Format: functional. To be noted: HCT-116.
Data set [7] is described as follows: RKO cell viability reduction, dose response, CellTiter-Glo luminescence (AID 1117322). Format: functional.
Data set [8] can be described thus: Luminescence Cell-Based Dose Retest to Confirm Inhibitors of Cancer Stem Cells. [Related pubchem assays (depositor defined):AID2717, AID2721]. The data set is classed as functional. To be noted: Homo sapiens.
Data set [9] can be described thus: cytotoxicity toward Colo320 cells – cell-based, CellTiter-Glo luminescence, IC50, dose response (AID 1117334). Format: functional. To be noted: COLO 320.
Data set [10] is described as follows: Concentration-dependent survival of SW480 colon cancer line, luminescence detection with CellTiter-Glo, half-maximal inhibitory concentration (AID 1117338). Format: functional.
Data set [11] in a line: SNU-C1 cell viability reduction, dose response, CellTiter-Glo luminescence (AID 1117323). Format: functional, cell-based.
Data set [12] is described as follows: inhibitors of Vif binding to APOBEC3G peptide, primary screen, biochemical, TR-FRET, GST-Vif 1-94, biotin-A3G peptide, dose response retest (AID 1117319).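 Further: TR-FRET signal of purified GST-Vif binding a biotinylated A3G peptide; inhibitors lower the FRET signal by blocking Vif and A3G binding.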 The data set is classed as functional.
Data set [13] deals with Photoreceptor-specific nuclear receptor (Homo sapiens, UniProt Q9Y5X4). Briefly: NR2E3 inverse agonists, dose response, biochemical, TR-FRET (AID 463256). The data set is classed as functional.
Data set [14] concerns the target ADP-ribosylation factor GTPase-activating protein 1 (Rattus norvegicus, UniProt Q62848). Briefly: Fluorescence polarization-based biochemical high throughput dose response screening assay to identify inhibitors of ADP-ribosylation factor GTPase activating protein 1 (ARFGAP1). The data set is classed as functional.
Another data set has as its target Cytochrome P450 2C9 (Homo sapiens, UniProt P11712).
Data set [15] has as its target Peroxisome proliferator-activated receptor gamma/Nuclear receptor corepressor 2 (Homo sapiens, UniProt P37231+Q9Y618). The data set can be described thus: Counterscreen for NR2E3 inverse agonists: TR-FRET-based biochemical high throughput dose response assay to identify inverse agonists of the interaction between peroxisome proliferator-activated receptor gamma (PPARg) and nuclear receptor co-repressor 2 (NCOR2). Format: functional.

In data set [16] the target is T1, Cytochrome P450 2C19 (Homo sapiens, UniProt P33261). Briefly: Cytochrome panel assay with activity outcomes. Panel member name: p450-cyp2c19 Compounds with AC50 equal or less than 10 uM are considered active. The data set is classed as functional.
T1 sequence (P33261 whole entry): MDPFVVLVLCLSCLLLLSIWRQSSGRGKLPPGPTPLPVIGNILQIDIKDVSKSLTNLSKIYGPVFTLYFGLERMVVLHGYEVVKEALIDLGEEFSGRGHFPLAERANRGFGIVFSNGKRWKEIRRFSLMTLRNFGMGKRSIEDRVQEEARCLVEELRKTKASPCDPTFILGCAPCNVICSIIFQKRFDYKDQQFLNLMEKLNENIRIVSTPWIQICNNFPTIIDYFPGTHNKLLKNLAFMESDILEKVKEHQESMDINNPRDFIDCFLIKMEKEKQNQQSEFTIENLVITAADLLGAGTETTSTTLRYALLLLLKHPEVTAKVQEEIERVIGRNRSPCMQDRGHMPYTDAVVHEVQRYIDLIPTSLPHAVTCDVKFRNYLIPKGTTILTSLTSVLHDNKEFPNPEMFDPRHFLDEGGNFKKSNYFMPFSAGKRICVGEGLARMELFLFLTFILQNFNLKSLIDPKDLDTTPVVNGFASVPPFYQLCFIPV
Data set [17] can be described thus: HEK293 cell cytotoxicity, dose response, cytotoxicity control, cherry-picks, set 5 (AID 1053117). Format: functional, cell-based.
A short description of data set [18]: HEK293T cytotoxicity, dose response, cytotoxicity control for miR-122 modulator project, cell-based, activator set, cherry-pick (AID 720690).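 Further: HEK293T human cells scored for general mammalian cytotoxicity.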 The data set is classed as functional.
The nature of data set [19]: fibronectin fibrillogenesis inhibitors in fibroblasts, dose response, AH1F cells, Alexa488-fibronectin fluorescence, cherry-pick, set 2 (AID 1117283). The data set is classed as functional, cell-based.
A short description of data set [20]: A Cell Based Secondary Assay To Explore Cytotoxicity of Compounds that Sensitize Mycobacterium Tuberculosis to Beta-Lactam Antibiotics. The data set is classed as functional.
Data set [21] in a line: Vero cell cytotoxicity, dose response, cytotoxicity control for Vif-APOBEC3G degradation inhibitor project, Vero cells (AID 1117358). Format: functional. To be noted: Human immunodeficiency virus 1, Vero.
Data set [22] concerns the target Solute carrier family 12 member 2/member 5 (Homo sapiens, UniProt P55011+Q9H2X9). Briefly: KCC2 and NKCC1 inhibition by rubidium flux, cell-based, NKCC1 counter-screen (AID 1734). Format: functional, HEK293.
The target of data set [23] is T1, Cytochrome P450 2C19. The data set can be described thus: qHTS Assay for Inhibitors and Substrates of Cytochrome P450 2C19. [Related pubchem assays: 410 ]. Format: ADME. To be noted: read-out: Potency.
Data set [24] concerns the target T2, Phospholipase D2 (Homo sapiens, UniProt O14939). Briefly: Discovery of PLD2 inhibitors using the Purified Enzyme Concentration Response Assay. Format: functional.
In data set [25] the target is T3, Phospholipase D1 (Homo sapiens, UniProt Q13393).
T3 sequence (Q13393 whole entry): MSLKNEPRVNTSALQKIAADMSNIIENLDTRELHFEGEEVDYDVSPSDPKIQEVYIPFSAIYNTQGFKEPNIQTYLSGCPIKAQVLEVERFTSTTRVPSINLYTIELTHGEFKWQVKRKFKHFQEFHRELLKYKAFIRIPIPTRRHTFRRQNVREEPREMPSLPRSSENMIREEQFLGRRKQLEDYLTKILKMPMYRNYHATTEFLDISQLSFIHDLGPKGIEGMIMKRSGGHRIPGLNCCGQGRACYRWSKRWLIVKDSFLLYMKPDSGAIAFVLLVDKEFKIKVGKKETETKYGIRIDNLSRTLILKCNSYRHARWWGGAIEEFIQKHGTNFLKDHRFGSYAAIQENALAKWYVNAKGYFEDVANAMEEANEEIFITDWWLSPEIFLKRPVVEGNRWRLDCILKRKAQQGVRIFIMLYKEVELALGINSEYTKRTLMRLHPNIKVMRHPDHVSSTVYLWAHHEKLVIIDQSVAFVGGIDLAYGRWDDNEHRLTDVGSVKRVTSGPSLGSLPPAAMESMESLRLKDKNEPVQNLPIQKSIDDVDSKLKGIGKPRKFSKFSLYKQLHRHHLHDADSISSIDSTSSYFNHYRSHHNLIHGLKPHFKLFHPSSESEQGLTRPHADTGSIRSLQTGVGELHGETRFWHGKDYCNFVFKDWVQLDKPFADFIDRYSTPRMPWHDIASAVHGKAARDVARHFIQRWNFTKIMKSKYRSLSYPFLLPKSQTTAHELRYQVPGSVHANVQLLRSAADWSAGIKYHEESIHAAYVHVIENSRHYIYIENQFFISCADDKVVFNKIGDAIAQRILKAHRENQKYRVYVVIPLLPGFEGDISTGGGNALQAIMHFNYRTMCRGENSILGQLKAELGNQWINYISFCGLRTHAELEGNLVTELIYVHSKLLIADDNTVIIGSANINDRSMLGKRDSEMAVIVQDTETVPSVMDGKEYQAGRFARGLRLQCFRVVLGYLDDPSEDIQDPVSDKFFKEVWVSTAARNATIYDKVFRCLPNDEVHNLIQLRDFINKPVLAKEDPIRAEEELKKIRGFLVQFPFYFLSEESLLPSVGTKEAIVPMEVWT
The data set can be described thus: purified PLD1 inhibitor potency, IC50, confirmation, biochemical, concentration response (AID 743390). The data set is classed as functional.

Data set [26] deals with T3, Phospholipase D1. Briefly: PLD1 Cellular Concentration Response Study. The data set is classed as functional.
Data set [27] addresses T2, Phospholipase D2. Briefly: PLD2 Cellular Concentration Response Study. Format: functional.
Data set [28] is described as follows: P. falciparum Dd2 blood-stage growth inhibition, dose response, SYBR Green fluorescence, erythrocytes, dry powder, set 2 (AID 1159574). Format: functional, cell-based.
The target of data set [29] is Alkaline phosphatase, placental type (Homo sapiens, UniProt P05187). The data set can be described thus: PLAP enzyme inhibitors, confirmation, biochemical, luminescence (AID 1512). Format: functional.
Data set [30] addresses T4, Alkaline phosphatase, tissue-nonspecific isozyme (Homo sapiens, UniProt P05186).
T4 sequence (P05186 whole entry): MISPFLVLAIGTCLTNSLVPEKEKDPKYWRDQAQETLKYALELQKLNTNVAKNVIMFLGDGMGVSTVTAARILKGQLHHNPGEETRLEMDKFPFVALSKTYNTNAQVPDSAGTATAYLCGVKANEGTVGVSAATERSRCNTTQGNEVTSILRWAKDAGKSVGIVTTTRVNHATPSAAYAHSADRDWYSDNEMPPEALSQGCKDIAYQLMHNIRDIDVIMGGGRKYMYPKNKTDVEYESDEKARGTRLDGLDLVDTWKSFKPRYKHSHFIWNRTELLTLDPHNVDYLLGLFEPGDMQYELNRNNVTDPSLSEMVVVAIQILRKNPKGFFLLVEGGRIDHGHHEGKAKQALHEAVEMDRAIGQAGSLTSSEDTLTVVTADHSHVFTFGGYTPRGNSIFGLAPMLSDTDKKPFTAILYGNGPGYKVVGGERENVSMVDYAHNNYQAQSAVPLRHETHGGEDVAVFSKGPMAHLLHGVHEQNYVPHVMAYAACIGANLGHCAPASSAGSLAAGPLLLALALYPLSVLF
The data set can be described thus: human TNAP enzyme inhibitors, SAR follow-up, biochemical, luminescent, dose response (AID 1056).

The nature of data set [31]: Luminescent dose response cell-based high throughput screening assay for inhibitors of the Janus kinase 2 mutant JAK2V617F. [Related pubchem assays: 1446 (Primary screen.), 1521 (Confirmation assay.), 1486 (Counter screen.)]. The data set is classed as functional.
Data set [32] has as its target T5, Rac GTPase-activating protein 1 (Homo sapiens, UniProt Q9H0H5).
T5 sequence (Q9H0H5 whole entry): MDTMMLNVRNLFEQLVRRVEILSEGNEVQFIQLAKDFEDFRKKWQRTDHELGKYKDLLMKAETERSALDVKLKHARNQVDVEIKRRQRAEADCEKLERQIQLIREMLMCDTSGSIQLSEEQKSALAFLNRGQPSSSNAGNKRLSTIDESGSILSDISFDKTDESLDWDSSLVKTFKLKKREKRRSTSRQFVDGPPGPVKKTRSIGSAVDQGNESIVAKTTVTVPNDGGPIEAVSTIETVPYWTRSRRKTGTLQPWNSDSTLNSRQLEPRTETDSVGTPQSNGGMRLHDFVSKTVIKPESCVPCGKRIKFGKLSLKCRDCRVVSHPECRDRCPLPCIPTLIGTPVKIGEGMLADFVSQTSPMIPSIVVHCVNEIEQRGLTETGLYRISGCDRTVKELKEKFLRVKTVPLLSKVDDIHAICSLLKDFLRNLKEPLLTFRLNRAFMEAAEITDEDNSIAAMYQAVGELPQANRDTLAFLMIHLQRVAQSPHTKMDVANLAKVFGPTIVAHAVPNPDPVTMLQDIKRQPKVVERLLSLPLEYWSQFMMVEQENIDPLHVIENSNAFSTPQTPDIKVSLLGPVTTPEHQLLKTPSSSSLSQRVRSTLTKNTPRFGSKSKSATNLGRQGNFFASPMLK
The data set can be described thus: MgcRacGAP GTPase-activating activity inhibitors, confirmation, biochemical, ADP Hunter fluorescence, primary and confirmatory (AID 624330). The data set is classed as functional.

Active and inactive are the calls of the source. Bounds are passed on as bounds.

T2 sequence (O14939 whole entry): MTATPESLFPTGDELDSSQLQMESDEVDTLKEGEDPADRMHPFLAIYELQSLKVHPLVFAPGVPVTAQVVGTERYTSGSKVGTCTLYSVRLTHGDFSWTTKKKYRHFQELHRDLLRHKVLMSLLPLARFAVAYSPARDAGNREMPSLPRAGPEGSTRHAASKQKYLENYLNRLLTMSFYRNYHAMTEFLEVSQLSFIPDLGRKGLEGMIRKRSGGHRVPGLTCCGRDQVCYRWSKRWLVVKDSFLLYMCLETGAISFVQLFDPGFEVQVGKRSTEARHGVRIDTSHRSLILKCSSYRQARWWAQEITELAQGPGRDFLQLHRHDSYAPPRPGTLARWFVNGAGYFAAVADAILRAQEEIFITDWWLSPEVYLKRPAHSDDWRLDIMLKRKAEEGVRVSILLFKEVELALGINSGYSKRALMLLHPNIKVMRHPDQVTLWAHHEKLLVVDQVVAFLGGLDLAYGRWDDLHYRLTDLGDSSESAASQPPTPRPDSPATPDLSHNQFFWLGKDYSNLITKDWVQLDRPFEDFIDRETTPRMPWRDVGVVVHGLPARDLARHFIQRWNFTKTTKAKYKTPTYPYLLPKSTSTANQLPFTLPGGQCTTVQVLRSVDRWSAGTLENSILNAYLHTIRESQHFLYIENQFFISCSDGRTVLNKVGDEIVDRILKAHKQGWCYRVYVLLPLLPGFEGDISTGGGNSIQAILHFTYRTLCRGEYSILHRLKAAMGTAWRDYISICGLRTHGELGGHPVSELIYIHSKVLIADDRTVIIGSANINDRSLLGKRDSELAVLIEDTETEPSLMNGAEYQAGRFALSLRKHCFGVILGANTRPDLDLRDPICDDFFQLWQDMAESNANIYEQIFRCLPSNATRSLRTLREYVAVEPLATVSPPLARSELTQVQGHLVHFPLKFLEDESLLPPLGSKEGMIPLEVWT
ADP-ribosylation factor GTPase-activating protein 1, sequence (Q62848 whole entry): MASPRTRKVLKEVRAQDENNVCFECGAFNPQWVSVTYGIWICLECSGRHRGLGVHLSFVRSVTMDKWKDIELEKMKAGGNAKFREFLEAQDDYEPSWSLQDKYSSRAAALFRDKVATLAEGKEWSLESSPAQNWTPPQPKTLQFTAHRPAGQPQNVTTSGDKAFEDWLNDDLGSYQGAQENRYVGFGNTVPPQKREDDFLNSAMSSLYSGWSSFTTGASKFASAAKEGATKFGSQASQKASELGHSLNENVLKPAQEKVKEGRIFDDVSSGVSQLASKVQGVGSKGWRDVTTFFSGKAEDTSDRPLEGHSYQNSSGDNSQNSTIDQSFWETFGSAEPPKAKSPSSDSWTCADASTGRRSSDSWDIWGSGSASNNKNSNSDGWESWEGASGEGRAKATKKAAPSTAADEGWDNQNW
Peroxisome proliferator-activated receptor gamma/Nuclear receptor corepressor 2, sequence (P37231 whole entry): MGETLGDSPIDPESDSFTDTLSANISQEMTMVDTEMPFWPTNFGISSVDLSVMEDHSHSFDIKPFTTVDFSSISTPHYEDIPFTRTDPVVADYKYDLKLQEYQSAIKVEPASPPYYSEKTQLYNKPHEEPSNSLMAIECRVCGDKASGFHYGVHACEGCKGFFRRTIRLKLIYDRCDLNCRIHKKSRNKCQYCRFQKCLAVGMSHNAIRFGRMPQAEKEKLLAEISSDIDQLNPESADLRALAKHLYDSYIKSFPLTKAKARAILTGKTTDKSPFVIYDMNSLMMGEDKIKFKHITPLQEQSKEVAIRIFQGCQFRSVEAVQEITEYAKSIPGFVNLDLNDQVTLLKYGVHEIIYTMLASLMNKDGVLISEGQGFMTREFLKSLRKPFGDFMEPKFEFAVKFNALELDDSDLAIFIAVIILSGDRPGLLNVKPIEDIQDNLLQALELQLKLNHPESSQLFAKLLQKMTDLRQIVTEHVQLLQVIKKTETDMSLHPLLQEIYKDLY
Peroxisome proliferator-activated receptor gamma/Nuclear receptor corepressor 2, sequence (Q9Y618 whole entry): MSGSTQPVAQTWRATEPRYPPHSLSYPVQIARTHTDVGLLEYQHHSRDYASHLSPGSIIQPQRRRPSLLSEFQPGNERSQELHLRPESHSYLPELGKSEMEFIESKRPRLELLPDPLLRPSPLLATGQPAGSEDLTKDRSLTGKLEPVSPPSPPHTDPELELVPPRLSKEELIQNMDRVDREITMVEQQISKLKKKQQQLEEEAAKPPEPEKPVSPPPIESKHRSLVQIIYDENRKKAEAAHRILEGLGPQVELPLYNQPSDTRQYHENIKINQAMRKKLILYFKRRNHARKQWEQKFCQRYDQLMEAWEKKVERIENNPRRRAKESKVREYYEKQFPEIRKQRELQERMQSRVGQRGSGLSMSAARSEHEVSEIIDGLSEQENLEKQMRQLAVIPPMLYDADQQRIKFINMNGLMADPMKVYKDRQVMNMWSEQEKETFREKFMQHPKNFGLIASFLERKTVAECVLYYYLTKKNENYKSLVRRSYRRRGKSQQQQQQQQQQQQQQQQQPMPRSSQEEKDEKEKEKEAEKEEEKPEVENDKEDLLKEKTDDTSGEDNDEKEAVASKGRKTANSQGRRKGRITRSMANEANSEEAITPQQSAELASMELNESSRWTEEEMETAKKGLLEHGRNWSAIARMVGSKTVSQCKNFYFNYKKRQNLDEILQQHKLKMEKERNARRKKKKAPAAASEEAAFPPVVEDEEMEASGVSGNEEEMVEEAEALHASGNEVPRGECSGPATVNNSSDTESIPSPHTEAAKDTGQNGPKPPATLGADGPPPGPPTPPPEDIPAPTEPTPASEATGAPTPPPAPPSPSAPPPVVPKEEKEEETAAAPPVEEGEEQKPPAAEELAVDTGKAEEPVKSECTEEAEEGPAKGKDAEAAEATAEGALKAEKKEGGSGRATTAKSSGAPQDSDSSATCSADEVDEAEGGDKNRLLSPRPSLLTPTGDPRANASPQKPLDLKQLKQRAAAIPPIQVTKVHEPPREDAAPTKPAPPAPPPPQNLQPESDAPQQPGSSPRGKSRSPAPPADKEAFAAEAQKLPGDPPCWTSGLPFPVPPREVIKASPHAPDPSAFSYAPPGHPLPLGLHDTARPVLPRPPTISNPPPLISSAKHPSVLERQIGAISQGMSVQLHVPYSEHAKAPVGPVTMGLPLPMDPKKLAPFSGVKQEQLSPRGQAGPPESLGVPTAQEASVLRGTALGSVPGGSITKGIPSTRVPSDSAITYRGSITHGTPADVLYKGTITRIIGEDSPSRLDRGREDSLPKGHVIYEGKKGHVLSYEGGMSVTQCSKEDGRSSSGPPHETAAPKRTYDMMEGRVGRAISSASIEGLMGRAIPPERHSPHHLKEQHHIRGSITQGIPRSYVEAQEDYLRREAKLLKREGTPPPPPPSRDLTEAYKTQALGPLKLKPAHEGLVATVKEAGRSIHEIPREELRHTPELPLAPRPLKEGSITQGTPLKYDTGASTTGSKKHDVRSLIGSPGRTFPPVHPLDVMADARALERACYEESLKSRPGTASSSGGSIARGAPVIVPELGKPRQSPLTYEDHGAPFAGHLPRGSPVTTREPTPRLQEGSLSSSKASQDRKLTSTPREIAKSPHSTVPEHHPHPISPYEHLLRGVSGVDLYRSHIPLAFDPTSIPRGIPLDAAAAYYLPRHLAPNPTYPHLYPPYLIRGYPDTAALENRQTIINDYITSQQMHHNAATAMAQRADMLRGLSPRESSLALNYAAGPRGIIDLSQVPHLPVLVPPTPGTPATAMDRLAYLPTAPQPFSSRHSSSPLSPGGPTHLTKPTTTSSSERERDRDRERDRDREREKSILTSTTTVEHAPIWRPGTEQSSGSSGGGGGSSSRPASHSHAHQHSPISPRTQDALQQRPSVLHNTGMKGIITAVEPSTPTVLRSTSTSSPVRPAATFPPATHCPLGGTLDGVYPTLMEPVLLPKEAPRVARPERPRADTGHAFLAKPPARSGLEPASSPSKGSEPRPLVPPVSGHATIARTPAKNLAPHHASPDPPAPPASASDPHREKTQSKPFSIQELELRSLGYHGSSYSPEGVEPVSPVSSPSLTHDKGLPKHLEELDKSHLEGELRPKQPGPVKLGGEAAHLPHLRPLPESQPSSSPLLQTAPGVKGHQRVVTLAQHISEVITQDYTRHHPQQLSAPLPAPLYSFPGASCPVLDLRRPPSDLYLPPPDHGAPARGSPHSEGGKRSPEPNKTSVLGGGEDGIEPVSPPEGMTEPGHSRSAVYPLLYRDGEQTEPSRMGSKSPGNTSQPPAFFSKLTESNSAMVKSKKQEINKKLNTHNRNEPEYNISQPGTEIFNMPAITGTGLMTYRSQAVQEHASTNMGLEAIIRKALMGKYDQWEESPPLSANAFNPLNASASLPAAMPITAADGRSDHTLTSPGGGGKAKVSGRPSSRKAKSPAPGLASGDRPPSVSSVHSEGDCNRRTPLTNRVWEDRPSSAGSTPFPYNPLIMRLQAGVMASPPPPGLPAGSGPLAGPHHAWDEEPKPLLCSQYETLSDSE

Consider `COCc1nc2ccccc2n1CCOc1ccc(C(C)(C)C)cc1`, for which the values for the AC50 (in [1]; in the data set “cells”) were 52.3 µM (active) and 34 µM (active), respectively.

As for `CC1=C(/C=C/C(C)=C/C=C/C(C)=C/C(=O)Nc2ccc(O)cc2)C(C)(C)CCC1` [FENRETINIDE], the IC50 in [2] was 9.49 µM (inactive); in data set [3], 5.3 µM (inactive); in data set [4], 2.12 µM (active); in [6], 4.95 µM (active); in data set [7] it was 1.72 µM (active); in [9] it was 3.24 µM (active). Also, the IC50 was 4.85 µM (active) in data set [10] and 6.69 µM (inactive) in data set [11]. Also, the CC50 in data set [5] was 14.4 µM (active). Moreover, the AC50 in data set [8] was 1.04 µM (active).

Turning to `O=C(Nc1c2c(nn1-c1ccc(F)cc1)C[S+]([O-])C2)C12CC3CC(CC(C3)C1)C2` (centres undefined), the half-inhibitory concentration (IC50) in data set [12] is > 100 µM (active).

Turning to `O=C(Nc1ccc(-c2cc3ccccc3oc2=O)c(Cl)c1)c1cccnc1`, the IC50 in data set [13] was > 39.8 µM (not active); in [14], 17.9 µM (inactive); in [15], > 39.8 µM (not active). Further, the AC50 entry at Cytochrome P450 2C9 and on Cytochrome P450 2C19 [16] was “inconclusive” in each case.

Take `CO[C@H]1CN(C)C(=O)c2cc(NC(=O)Nc3cc(Cl)cc(Cl)c3)ccc2OC[C@H](C)NC[C@@H]1C`: the AC50 in data set [17] was > 52 µM (inactive); in data set [18] it was 16.9 µM (active); in [19], > 70 µM (inactive).

On to `O=C(NNC(=O)c1cc(OCC(F)(F)F)ccc1OCC(F)(F)F)c1cccc(C(F)(F)F)c1`, for which the CC50 in data set [20] and in [21] was > 40 µM (active) each time.

Turning to `O=C(/C=C/c1ccccc1)Nc1scc(-c2ccccc2)c1C(=O)O`, the IC50 in data set [22] is 7.9 µM (active).

As for `CC(=O)c1ccc(C2C=CC(Oc3ccc(-c4ccccc4)cc3)C(CO)O2)cc1` (centres undefined), the AC50 at Cytochrome P450 2C19 [23] is 0.794 µM (inconclusive).

As to `O=C(NCCN1CCC2(CC1)C(=O)NCN2Cc1cccnc1)c1cc2ccccc2[nH]1`, the IC50 was 0.94 µM (active) at Phospholipase D2 [24], 20 µM (active) on Phospholipase D1 [25], 3.59 µM (active) on Phospholipase D1 [26] and 0.05 µM (active) at Phospholipase D2 [27].

As for `O=C(c1ccccc1F)N1CC(=O)N2[C@H](CO)[C@H](c3ccc(-c4cccnc4)cc3)[C@@H]2C1`, in [28], the AC50 was > 39 µM (inactive).

For `O=C(CSc1nnnn1-c1ccc(F)cc1)c1ccc(O)c(O)c1`, the IC50 in data set [29] was 1.89 µM (active); in data set [30] it was 5.98 µM (active); in data set [31] it was 2.16 µM (active); in data set [32], 80.6 µM (active).
